Test results published in patent US12590118B2, “Salt and crystal form of steroid derivative regulator” (Shanghai Hansoh Biomedical Co., Ltd., priority 2019, dated 2026).

Columns and labels:
ICR mice = assay: Forced swimming model in mice; assay type: in vivo; conditions: for Mean (immobility, %): floating time/240 s; for immobility time during the latter four minutes compared with that of the model group: forced swimming, ICR mice
Procedure, shortened: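 Male ICR mice (25-35 g), 12 per group, dosed intragastrically at brain Tmax with 10 mg/kg or 5 mg/kg p.o. in 0.5% CMC-Na + 1% Tween 80. Forced swim 0.5-1 h post-dose for 6 min in 25-26° C. water, 18 cm deep. Immobility over last 4 min, given as floating time percentage of 240 s.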

CD-1 mice = assay: PTZ-induced epilepsy model in mice; assay type: in vivo; conditions: 3 mpk p.o., PTZ 120 mg/kg s.c., 30 min observation
Description: The PTZ-induced epilepsy model in CD-1 mice was established, and the antiepileptic effect of the compounds of Example 2, Example 40, Example 41 and Example 52 was evaluated using this model.
50 male CD-1 mice were purchased from Beijing Vital River Laboratory Animal Technology Co. Ltd. The test animals were adapted at the animal room in the third building of Shanghai ChemPartner Co., Ltd for 7 days before the experiment. The average body weight of the animals on the test day was 32.2±0.2 grams. Feeding environment: 5 animals/cage, room temperature 23±2° C., 12/12 hours of light and dark cycle, free access to food and water.
The mice were randomly grouped for the experiment on the test day.
Compounds of Example 2, Example 40, Example 41 and Example 52 (prepared by the applicant). The test compounds were stored in a refrigerator at 4° C.
4.2.3 Test Equipments • 1 ml sterile disposable syringe with needle (purchased from Zhejiang Kangdelai Medical Devices Co., Ltd.) • Pipette: Eppendorf Research Plus (100-1000 μL) • Vortex mixer: Kylin-Bell Vortex 5 • Ultrasonic instrument: JL-360 ultrasonic cleaner • Balance: METTLER TOLEDO XS204 precision balance • Balance: METTLER TOLEDO XS6002S electronic balance • Plexiglass box: 25 cm length*15 cm width*15 cm height with one opaque side wall, custom made by Suzhou Fengshi Laboratory Animal Equipment Co., Ltd • 3-channel timer: Oregon/Model NO. WB-388. 4.2.4 Test Animal Grouping • 1) Vehicle/PTZ: 0.5% CMC-Na+1% Tween-80 (10 ml/kg, p.o.), administered 0.5 hr before the PTZ administration; PTZ ([…], s.c.), administered before the experiment; • 2) 3 mg/kg of the compounds of Examples/PTZ: the compounds of Example 2, Example 40, Example 41 and Example 52 (3 mg/kg, 10 ml/kg, p.o.), administered 0.5 hr before the PTZ administration; PTZ ([…], s.c.), administered before the experiment. 4.3 Experimental Procedures 4.3.1 Solvent Formulation • 1) 0.5% CMC-Na+1% Tween-80 (administration volume: 10 mL/kg):
1 g of sodium carboxymethyl cellulose was precisely weighed and added to a 250 mL solvent bottle, then 150 mL of double-distilled water was added. The mixture was stirred at room temperature for 4 hours with a magnetic stirrer to obtain a uniform and clear solution. 2 mL of Tween-80 was slowly added, and the mixture was stirred at room temperature for 3 hours to obtain a uniform and clear solution. The solution was slowly transferred to a 200 mL volumetric flask, and double distilled water was added to the constant volume of 200 mL. The solution was transferred to a 250 mL solvent bottle, and stirred for 1 hour with a magnetic stirrer to obtain a uniform and clear solution. • 2) 30% hydroxypropyl-p-cyclodextrin:
248 mg of PTZ was precisely weighed and added to a 40 mL brown flask, then 20.667 mL of physiological saline was added. The mixture was mixed by vortex for 2 minutes, and treated by ultrasound at room temperature for 2 minutes to obtain a uniform and clear solution (concentration: 12 mg/mL). • 2) 0.3 mg/mL of the compounds of Example 5 or Example 23 (dose: 3 mg/kg; administration volume: 10 mL/kg): […]
4.4 Adaptation to the Environment
The mice were randomly grouped, marked and weighed; 10 mice per group. The test compound was administered orally at an administration volume of 10 mL/kg 30-60 minutes before the PTZ administration.
PTZ (120 mg/kg) was administrated subcutaneously before the experiment observation, and this time point was recorded as the observation start point; after the administration of PTZ, the animal was immediately placed in the observation box and observed for 30 minutes, and the followings were recorded: a) the incubation period of the first clonic seizure, b) the incubation period of the first generalized tonic seizure, c) the number of clonic seizures, d) the number of generalized tonic seizures, e) the time when the animal died.
All measurement data were expressed as Mean±SEM, and analysed with Prism 6.0 statistical software.

Compound	Mean (immobility, %) (ICR mice; dose 10 mpk p.o.) [%]	immobility time during the latter four minutes compared with that of the model group (ICR mice)	Incubation period of the clonic seizure (sec) Mean ± SEM (CD-1 mice) [s]	Incubation period of the generalized tonic seizure (sec) Mean (CD-1 mice) [s]	Mortality rate (%) (CD-1 mice)	Number of clonic seizures Mean (CD-1 mice)	Number of generalized tonic seizures Mean (CD-1 mice)	Time when the animal died (sec) Mean (CD-1 mice) [s]	Mean (immobility, s) (ICR mice; dose 10 mpk p.o., latter four minutes of 6 min swim) [s]
C[C@@]1(O)CC[C@H]2[C@H](CC[C@@H]3[C@@H]2CC[C@@]2(C)[C@H]3[C@@H]3C[C@@H]3[C@@H]2C(=O)Cn2ccc(C#N)n2)C1 [Example 2, 1-(2-((2R,4aS,4bR,6aS,7S,7aS,8aR,8bR,8cR,10aR)-2-Hydroxy-2,6a-dimethyloctadecahydrocyclopropa[4,5]cyclopenta[1,2-a]phenanthren-7-yl)-2-oxoethyl)-1H-pyrazole-3-carbonitrile]	28.50	very significantly different	902.9 ± 200.8	1736.0 ± 63.2	10	1.3 ± 0.3	0.1 ± 0.1	1739.8 ± 60.2	–
C[C@@H]1C[C@H](C(=O)Cn2ccc(C#N)n2)[C@@]2(C)CC[C@H]3[C@@H](CC[C@@H]4C[C@](C)(O)CC[C@@H]43)[C@H]12 [Example 40, 1-(2-((3R,5R,8R,9R,10S,13S,14S,15R,17S)-3-Hydroxy-3,13,15-trimethylhexadecahydro-1H-cyclopenta[a]phenanthren-17-yl)-2-oxoethyl)-1H-pyrazole-3-carbonitrile]	35.30	very significantly different	1308.1 ± 170.1	1800.0 ± 0.0	0	0.5 ± 0.2	0.0 ± 0.0	1800.0 ± 0.0	84.90
